# From patent US20100062478A1, “DRUG FOR ANALYSIS OF WATER TRANSPORT FUNCTION OF MEMBRANE PROTEIN IN BIOLOGICAL TISSUE” (priority 2007, published 2010)
# Tested on: aquaporin
# Assay: Immersion of round radish slices in red food coloring water (Reference Example 1)
# Procedure: Using radish that was cut into round slices with thicknesses of 6-10 cm, the bottom faces of the round slices were immersed in red food coloring water for 1-16 hours, As the red food coloring, Red No. 102 (chemical name: 7-hydroxy-8-(4-sulfonaphthylazo)-1,3-naphthylenedisulfonic acid=trisodium salt=1½ hydrate) was used.
smiles,measurement,setting,value
"O.O.O.O=S(=O)([O-])c1cc(S(=O)(=O)[O-])c2c(N=Nc3ccc(S(=O)(=O)[O-])c4ccccc34)c(O)ccc2c1.O=S(=O)([O-])c1cc(S(=O)(=O)[O-])c2c(N=Nc3ccc(S(=O)(=O)[O-])c4ccccc34)c(O)ccc2c1.[Na+].[Na+].[Na+].[Na+].[Na+].[Na+] [Red No. 102, 7-hydroxy-8-(4-sulfonaphthylazo)-1,3-naphthylenedisulfonic acid=trisodium salt=1½ hydrate]",permeation of red food coloring into radish tissue,"bottom face of round slices immersed, one hour elapsed",had soaked into the connective tissue at the periphery of the round slices from the bottom face
same,permeation of red food coloring into radish tissue,round slices immersed for 16 hours,sites permeated by red food coloring water were not found anywhere other than the connective tissue
